pIC50: −log10 of the molar value.
Each molecule was assayed against human PDE10A (Homo sapiens (Human), UniProt Q9Y233) (assay: human PDE10A full length Scintillation Proximity Assay (SPA)). Settings: PDE10A full length enzyme, 50 nM cGMP / [3H]-cGMP substrate, 20 minutes at room temperature.
Assay type: biochemical
Protocol: The following test was carried out in order to determine the activity of the compounds of the present invention. PDE10 activity of the compounds of the present invention was determined using a Scintillation Proximity Assay (SPA)-based method similar to the one previously described (Fawcett, L. et al., Proc Natl Acad Sci USA (2000) 97(7):3702-3707).
The human PDE10A full length assay was performed in 96-well micro titer plates. The reaction mixture of 50 μl contained 20 mM HEPES pH=7.5/10 mM MgCl2/0.05 mg/ml BSA (Sigma cat. # A-7906), 50 nM cGMP (Sigma, cat. # G6129) and 50 nM [3H]-cGMP (GE Healthcare, cat. # TRK392 S.A. 13.2 Ci/mmol), 3.75 ng/well PDE10A enzyme (Enzo Life Science, Lausen, Switzerland cat # SE-534) with or without a specific test compound. A range of concentrations of the potential inhibitor was used to generate data for calculating the concentration of inhibitor resulting in 50% of the effect (e.g. IC50, the concentration of the competitor inhibiting PDE10A activity by 50%). Non-specific activity was tested without the enzyme. The reaction was initiated by the addition of the substrate solution (cGMP and [3H]-cGMP) and allowed to progress for 20 minutes at room temperature. The reaction was terminated by adding 25 μl of YSi-SPA scintillation beads (GE Healthcare, cat. # RPNQ0150) in 18 mM zinc sulphate solution (stop reagent). After 1 h under shaking, the plate was centrifuged one minute at 170 g to allow beads to settle. Afterwards, radioactive counts were measured on a Perkin Elmer Top-Count Scintillation plate reader.

human PDE10A, sequence (Q9Y233 other isoform, or with tags, fused parts or gaps): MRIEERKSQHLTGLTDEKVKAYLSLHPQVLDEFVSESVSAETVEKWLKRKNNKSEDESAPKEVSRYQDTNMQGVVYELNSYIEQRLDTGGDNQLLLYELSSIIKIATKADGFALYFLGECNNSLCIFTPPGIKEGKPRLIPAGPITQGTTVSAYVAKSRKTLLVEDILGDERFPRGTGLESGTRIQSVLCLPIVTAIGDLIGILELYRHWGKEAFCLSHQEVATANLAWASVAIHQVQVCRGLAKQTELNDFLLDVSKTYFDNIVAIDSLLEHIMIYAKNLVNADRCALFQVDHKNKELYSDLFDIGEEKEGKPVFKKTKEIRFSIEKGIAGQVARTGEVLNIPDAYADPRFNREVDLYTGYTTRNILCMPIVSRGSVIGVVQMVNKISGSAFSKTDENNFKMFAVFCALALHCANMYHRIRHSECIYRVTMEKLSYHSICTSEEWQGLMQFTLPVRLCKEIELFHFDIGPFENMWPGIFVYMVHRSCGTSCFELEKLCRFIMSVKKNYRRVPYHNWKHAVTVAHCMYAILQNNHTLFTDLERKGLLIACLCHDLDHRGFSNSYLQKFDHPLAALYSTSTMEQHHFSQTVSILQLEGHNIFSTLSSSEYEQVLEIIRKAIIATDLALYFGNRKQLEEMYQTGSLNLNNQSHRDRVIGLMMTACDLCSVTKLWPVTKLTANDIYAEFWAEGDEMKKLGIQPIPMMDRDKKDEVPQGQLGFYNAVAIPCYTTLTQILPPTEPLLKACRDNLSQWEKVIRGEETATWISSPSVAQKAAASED

SMILES | pIC50
CCN(CC)c1nc(CCc2nc3c(C)ncc(C)n3n2)n(C)n1 [Example 59, {5-[2-(5,8-Dimethyl-[1,2,4]triazolo[1,5-a]pyrazin-2-yl)-ethyl]-1-methyl-1H-[1,2,4]triazol-3-yl}-diethyl-amine] | 7.30
Cc1ncc(C)n2nc(CCc3nc(N4CCC[C@@H]4C(F)(F)F)nn3C)nc12 [Example 114, 5,8-Dimethyl-2-{2-[2-methyl-5-((R)-2-trifluoromethyl-pyrrolidin-1-yl)-2H-[1,2,4]triazol-3-yl]-ethyl}-[1,2,4]triazolo[1,5-a]pyrazine] | 7.47
Cc1c(Cl)cc(OCCN2CCOCC2)c2nc(CCc3nc(N4CCCC4)nn3C)nn12 [Example 121, 4-[2-[[6-Chloro-5-methyl-2-[2-(2-methyl-5-pyrrolidin-1-yl-1,2,4-triazol-3-yl)ethyl]-[1,2,4]triazolo[1,5-a]pyridin-8-yl]oxy]ethyl]morpholine] | 8.86
Cc1ccc2nc(CCc3nc(N4CCCC4)nn3C)nn2c1C [Example 40, 5,6-Dimethyl-2-(2-(1-methyl-3-(pyrrolidin-1-yl)-1H-1,2,4-triazol-5-yl)ethyl)-[1,2,4]triazolo[1,5-a]pyridine] | 7.99
Cc1ncc(C)n2nc(/C=C/c3nc(N4CCCC4)n(C)n3)nc12 [Example 17, 5,8-Dimethyl-2-[2-(1-methyl-5-pyrrolidin-1-yl-1H-[1,2,4]triazol-3-yl)-vinyl]-[1,2,4]triazolo[1,5-a]pyrazine] | 8.17
Cc1c(Cl)cc(C(F)(F)F)c2nc(CCc3nc(N4CCC(F)(F)C4)nn3C)nn12 [Example 88, 6-Chloro-2-{2-[5-(3,3-difluoro-pyrrolidin-1-yl)-2-methyl-2H-[1,2,4]triazol-3-yl]-ethyl}-5-methyl-8-trifluoromethyl-[1,2,4]triazolo[1,5-c]pyridine] | 8.01
Cc1cc(Cl)c(C)n2nc(CCc3nc(N4CCCC4)n(C)n3)nc12 [Example 36, 6-Chloro-5,8-dimethyl-2-(2-(1-methyl-5-(pyrrolidin-1-yl)-1H-1,2,4-triazol-3-yl)ethyl)-[1,2,4]triazolo[1,5-a]pyridine] | 9.24
COc1cc(Cl)c(C)n2nc(CCc3nc(N4CCCC4)nn3C)nc12 [Example 76, 6-Chloro-8-methoxy-5-methyl-2-[2-(2-methyl-5-pyrrolidin-1-yl-2H-[1,2,4]triazol-3-yl)-ethyl]-[1,2,4]triazolo[1,5-a]pyridine] | 9.36
Cc1cc2nc(CCc3nc(N4CCCC4)nn3C)nn2c(C)n1 [Example 45, 5,7-Dimethyl-2-(2-(1-methyl-3-(pyrrolidin-1-yl)-1H-1,2,4-triazol-5-yl)ethyl)-[1,2,4]triazolo[1,5-c]pyrimidine] | 7.23
Cc1c(Cl)cc(C(F)(F)F)c2nc(CCc3nc(N4CCCC4)nn3C3CCOCC3)nn12 [Example 122, 6-Chloro-5-methyl-2-(2-(3-(pyrrolidin-1-yl)-1-(tetrahydro-2H-pyran-4-yl)-1H-1,2,4-triazol-5-yl)ethyl)-8-(trifluoromethyl)-[1,2,4]triazolo[1,5-a]pyridine] | 9.46
COC1CCN(c2nc(CCc3nc4c(C)ncc(C)n4n3)n(C)n2)C1 (stereo not shown) [Example 43, 2-{2-[5-(3-Methoxy-pyrrolidin-1-yl)-2-methyl-2H-[1,2,4]triazol-3-yl]-ethyl}-5,8-dimethyl-[1,2,4]triazolo[1,5-a]pyrazine] | 7.07
Cc1c(Cl)cc(Br)c2nc(CCc3nc(N4CCCC4)nn3C)nn12 [Example 71, 8-Bromo-6-chloro-5-methyl-2-[2-(2-methyl-5-pyrrolidin-1-yl-2H-[1,2,4]triazol-3-yl)-ethyl]-[1,2,4]triazolo[1,5-a]pyridine] | 9.00
Cc1c(Cl)cc(C#N)c2nc(CCc3nc(N4CCCC4)nn3C)nn12 [Example 79, 6-Chloro-5-methyl-2-[2-(2-methyl-5-pyrrolidin-1-yl-2H-[1,2,4]triazol-3-yl)-ethyl]-[1,2,4]triazolo[1,5-c]pyridine-8-carbonitrile] | 8.65
Cn1nc(N2CCCC2)nc1CCc1nc2cc(C(F)(F)F)c(F)c(N)n2n1 [Example 63, 6-Fluoro-2-(2-(1-methyl-3-(pyrrolidin-1-yl)-1H-1,2,4-triazol-5-yl)ethyl)-7-(trifluoromethyl)-[1,2,4]triazolo[1,5-a]pyridin-5-amine] | 7.49
Cc1nc2cc(Cl)ccc2nc1C#Cc1nc(N2CCCC2)nn1C [Example 135, 6-Chloro-3-methyl-2-(2-methyl-5-pyrrolidin-1-yl-2H-[1,2,4]triazol-3-ylethynyl)-quinoxaline] | 7.97
Cc1ncc(C)n2nc(CCc3nc(N4CCC(C(F)F)C4)nn3C)nc12 (stereo not shown) [Example 129, 2-{2-[5-(3-Difluoromethyl-pyrrolidin-1-yl)-2-methyl-2H-[1,2,4]triazol-3-yl]-ethyl}-5,8-dimethyl-[1,2,4]triazolo[1,5-a]pyrazine] | 7.32

SMILES | pIC50
Cn1nc(N2CCCC2)nc1CCc1nc2c(Cl)cc(C(F)(F)F)cn2n1 [Example 54, 8-Chloro-2-(2-(1-methyl-3-(pyrrolidin-1-yl)-1H-1,2,4-triazol-5-yl)ethyl)-6-(trifluoromethyl)-[1,2,4]triazolo[1,5-a]pyridine] | 6.98
Cc1c(Cl)cc(Cl)c2nc(CCc3n[nH]c(N4CCCC4)n3)nn12 [Example 68, 6,8-Dichloro-5-methyl-2-[2-(5-pyrrolidin-1-yl-1H-[1,2,4]triazol-3-yl)-ethyl]-[1,2,4]triazolo[1,5-a]pyridine] | 9.66
Cc1ncc(C)n2nc(CCc3nc(N4CCCC4)nn3CC3CC3)nc12 [Example 117a, 2-[2-(2-Cyclopropylmethyl-5-pyrrolidin-1-yl-2H-[1,2,4]triazol-3-yl)-ethyl]-5,8-dimethyl-[1,2,4]triazolo[1,5-a]pyrazine] | 8.88
Cc1ccn2nc(CCc3nc(N4CCCC4)nn3C)nc2c1[N+](=O)[O-] [Example 55, 7-Methyl-2-(2-(1-methyl-3-(pyrrolidin-1-yl)-1H-1,2,4-triazol-5-yl)ethyl)-8-nitro-[1,2,4]triazolo[1,5-a]pyridine] | 7.02
Cn1nc(N2CCCC2)nc1CCc1nc2ccc(C#N)cn2n1 [Example 53, 2-(2-(1-Methyl-3-(pyrrolidin-1-yl)-1H-1,2,4-triazol-5-yl)ethyl)-[1,2,4]triazolo[1,5-a]pyridine-6-carbonitrile] | 6.42
Cc1c(Cl)ccc2nc(CCc3nc(N4CCCC4)nn3C)nn12 [Example 27, 6-Chloro-5-methyl-2-(2-(1-methyl-3-(pyrrolidin-1-yl)-1H-1,2,4-triazol-5-yl)ethyl)-[1,2,4]triazolo[1,5-a]pyridine] | 9.01
CCc1cc(C(F)(F)F)c2nc(CCc3nc(N4CCCC4)nn3C)nn2c1C [Example 86, 6-Ethyl-5-methyl-2-[2-(2-methyl-5-pyrrolidin-1-yl-2H-[1,2,4]triazol-3-yl)-ethyl]-8-trifluoromethyl-[1,2,4]triazolo[1,5-a]pyridine] | 8.46
Cc1c(Cl)cc(OC(F)F)c2nc(CCc3nc(N4CCCC4)n(C)n3)nn12 [Example 106, 6-Chloro-8-difluoromethoxy-5-methyl-2-[2-(1-methyl-5-pyrrolidin-1-yl-1H-[1,2,4]triazol-3-yl)-ethyl]-[1,2,4]triazolo[1,5-c]pyridine] | 9.26
Cc1ccc(C)n2nc(CCc3nc(N4CCCC4)nn3C)nc12 [Example 37, 5,8-Dimethyl-2-(2-(1-methyl-3-(pyrrolidin-1-yl)-1H-1,2,4-triazol-5-yl)ethyl)-[1,2,4]triazolo[1,5-a]pyridine] | 8.38
Cc1c(Br)cc(C(F)(F)F)c2nc(CCc3nc(N4CCCC4)nn3C)nn12 [Example 82, 6-Bromo-5-methyl-2-[2-(2-methyl-5-pyrrolidin-1-yl-2H-[1,2,4]triazol-3-yl)-ethyl]-8-trifluoromethyl-[1,2,4]triazolo[1,5-c]pyridine] | 9.32
Cc1ncc(C)n2nc(CCc3nc(N4CCCC4)n(CC4CC4)n3)nc12 [Example 117b, 2-[2-(1-Cyclopropylmethyl-5-pyrrolidin-1-yl-1H-[1,2,4]triazol-3-yl)-ethyl]-5,8-dimethyl-[1,2,4]triazolo[1,5-a]pyrazine] | 8.17
CCN(c1nc(CCc2nc3c(C)ncc(C)n3n2)n(C)n1)C1CC1 [Example 60, Cyclopropyl-{5-[2-(5,8-dimethyl-[1,2,4]triazolo[1,5-a]pyrazin-2-yl)-ethyl]-1-methyl-1H-[1,2,4]triazol-3-yl}-ethyl-amine] | 6.73
Cc1cccc2nc(CCc3nc(N4CCCC4)nn3C)nn12 [Example 29, 5-Methyl-2-(2-(1-methyl-3-(pyrrolidin-1-yl)-1H-1,2,4-triazol-5-yl)ethyl)-[1,2,4]triazolo[1,5-a]pyridine] | 7.25
Cc1ncc(C)n2nc(/C=C/c3nc(N4CCCC4)nn3C)nc12 [Example 13, 5,8-Dimethyl-2-[2-(2-methyl-5-pyrrolidin-1-yl-2H-[1,2,4]triazol-3-yl)-vinyl]-[1,2,4]triazolo[1,5-a]pyrazine] | 7.56
Cc1nc(C)c2nc(CCc3nc(N4CCCC4)nn3C)nn2c1C [Example 41, 5,6,8-Trimethyl-2-(2-(1-methyl-3-(pyrrolidin-1-yl)-1H-1,2,4-triazol-5-yl)ethyl)-[1,2,4]triazolo[1,5-a]pyrazine] | 7.43

From patent US9394311B2, “Triazolo compounds as PDE10 inhibitors” (Hoffmann-La Roche Inc., priority 2012, dated 2016)
